Laboratory results from patent US5449820A, “Method of preparing high purity 2,6-naphthalene dicarboxylic acid” (Mitsubishi Chemical Corporation, priority 1994, dated 1995).

Assay: solubility of 2,6-naphthalene dicarboxylic acid with respect to high temperature and high pressure water
Type: physicochemical
Settings: for solubility in water containing 5 wt % of isopropanol: water containing 5 wt % of isopropanol (entrainer)
Method: Although the quantity of water for use in the dissolving process differs depending upon the dissolving temperature, the quantity of water must be larger than a quantity (the saturated solubility) in which coarse 2,6-naphthalene dicarboxylic acid can be completely dissolved. In an example case where water containing 5 wt % of isopropanol is used and the dissolving temperature is 300° C., five parts or more by weight of water with respect to one part by weight of coarse 2,6-naphthalene dicarboxylic acid is required. An example of the results of measurements of the solubility of 2,6-naphthalene dicarboxylic acid with respect to high temperature and high pressure water is shown in Table 1.

Solubility in water (225 °C, 27 atm): 0.36 wt % | Solubility in water (250 °C, 40 atm): 1.13 wt % | solubility in water containing 5 wt % of isopropanol (250 °C): 4.2 wt % | Solubility in water (275 °C, 60 atm): 3.28 wt % | Solubility in water (300 °C, 86 atm): 8.34 wt % | solubility in water containing 5 wt % of isopropanol (300 °C): 18.0 wt % | Solubility in water (325 °C, 121 atm): 18.6 wt % | Solubility in water (375 °C, 230 atm): 34.2 wt % | Solubility in water (386 °C, 230 atm): 36.7 wt % | solubility with respect to water (dissolved) (about 370 °C, critical temperature for water): ≥ 30 wt %
SMILES: O=C(O)c1ccc2cc(C(=O)O)ccc2c1 [2,6-naphthalene dicarboxylic acid]
